From PMC9181126, “Design, Synthesis, Molecular Docking Analysis and Biological Evaluations of 4-[(Quinolin-4-yl)amino]benzamide Derivatives as Novel Anti-Influenza Virus Agents” (International Journal of Molecular Sciences, 2022)

Key:
[1] = in vitro; format: cell-based, canine; conditions: dog
Protocol: (§1) The 3-(4,5-dimethylthiazol-2-yl)-2,5-diphenyltetrazolium bromide (MTT) method was performed to assess the cytotoxicity of target compounds in MDCK cells and HEK293T cells. Firstly, MDCK cells or HEK293T cells were seeded into the 96-well plate. Then, the media containing test compounds replaced the growth media after 48 h. Incubate MDCK cells or HEK293T cells with test compounds for 72 h at 37 °C in a humidified 5% CO2 incubator. Later, MTT solution (5 mg/mL in PBS) was added into each well and plates were incubated for 4 h at 37 °C. Then, add a solubilization solution to lyse cells. Finally, absorbance was read at 620 nm using an ELISA plate reader (Tecan Sunrise) after 3 h of further incubation at 37 °C. We set the values obtained from the wells treated with only DMSO as 100% of viable cells.

[2] = system: MDCK cells; assay: in vitro; format: cell-based, canine; conditions: dog, 72 h
Protocol: as §1

[3] = in vitro; format: cell-based; conditions: human
Protocol: as §1

[4] = system: HEK293T cells; assay: in vitro; format: cell-based; conditions: human, 72 h
Protocol: as §1

[5] = system: influenza virus A/WSN/33 (H1N1); assay: microbe, parasite or virus in culture; format: cell-based; conditions: MDCK, 72 h; for inhibition at 12.5 µM / inhibition at 25 µM / inhibition at 50 µM / inhibition at 100 µM: H1N1|WSN, read-out: Antiviral activity in CPE assay; for EC50: read-out: Cytopathic Effect Assay (A/WSN/33, H1N1) EC50
[6] = system: influenza virus A/WSN/33 (H1N1); assay: Plaque inhibition assay in MDCK cells; format: cell-based; conditions: MDCK, read-out: Plaque Inhibition Assay (A/WSN/33, H1N1) Inhibition Rate; for inhibition at 25 µM: concentration 25 µM; for inhibition at 100 µM: concentration 100 µM

Compound	CC50 at 72 h [1] [µM]	MDCK cells survival rate ([2]; 12.5 µmol·L−1) [%]	MDCK cells survival rate ([2]; 25 µmol·L−1) [%]	MDCK cells survival rate ([2]; 50 µmol·L−1) [%]	MDCK cells survival rate ([2]; 100 µmol·L−1) [%]	CC50 at 72 h [3] [µM]	HEK293T cells survival rate ([4]; 3.125 µmol·L−1) [%]	HEK293T cells survival rate ([4]; 6.25 µmol·L−1) [%]	HEK293T cells survival rate ([4]; 12.5 µmol·L−1) [%]	HEK293T cells survival rate ([4]; 25 µmol·L−1) [%]	HEK293T cells survival rate ([4]; 50 µmol·L−1) [%]	HEK293T cells survival rate ([4]; 100 µmol·L−1) [%]	inhibition at 12.5 µM [5] [%]	inhibition at 25 µM [5] [%]	inhibition at 50 µM [5] [%]	inhibition at 100 µM [5] [%]	EC50 [5] [µM]	melting point [°C]	inhibition at 100 µM [6] [%]	other results
O=C(NCCCN1CCOCC1)c1ccc(Nc2ccnc3cc(C(F)(F)F)ccc23)cc1 [Compound G08, N-(3-Morpholinopropyl)-4-{[7-(trifluoromethyl)quinolin-4-yl]amino}benzamide]	> 100	95.86±1.24	76.43±4.79	75.20±0.25	78.41±2.97	> 100	100.86±3.39	97.00±3.10	95.72±3.30	95.56±2.29	98.07±1.80	112.13±1.41	44.3 ± 3.44	45.6 ± 9.4	31.1 ± 8.71	15.4 ± 0.23	> 100	207.3 to 209.1	–	inhibition at 25 µM [6]: 11.5%
O=C(NC1CCCCC1)c1ccc(Nc2ccnc3cc(C(F)(F)F)ccc23)cc1 [Compound G09, N-Cyclohexyl-4-{[7-(trifluoromethyl)quinolin-4-yl]amino}benzamide]	> 100	156.36±6.13	124.74±4.87	130.46±12.65	133.61±3.89	> 100	106.48±6.90	98.20±3.74	92.83±3.70	96.79±0.62	101.55±2.23	81.22±3.80	31.9 ± 0.69	22.9 ± 3.9	21.4 ± 0.92	23.2 ± 3.9	> 100	236.5 to 237.3	–	inhibition at 12.5 µM ([6]; concentration 12.5 µM): 46.9%
O=C(NC1CCC(O)CC1)c1ccc(Nc2ccnc3cc(C(F)(F)F)ccc23)cc1 (stereo not shown) [Compound G10, N-(4-Hydroxycyclohexyl)-4-{[7-(trifluoromethyl)quinolin-4-yl]amino}benzamide]	> 100	84.64±7.10	109.11±15.21	127.95±8.15	110.17±2.79	> 100	108.01±12.84	104.56±4.92	98.12±8.96	98.50±8.84	99.09±8.41	109.24±7.99	48.9 ± 2.01	58 ± 1.69	66.2 ± 2.87	63.8 ± 5.18	10.4 ± 0.22	324 to 325	7.41	–
O=C(NCc1ccccc1)c1ccc(Nc2ccnc3cc(C(F)(F)F)ccc23)cc1 [Compound G11, N-Benzyl-4-{[7-(trifluoromethyl)quinolin-4-yl]amino}benzamide]	> 100	148.07±0.17	123.28±5.69	127.54±0.33	137.86±9.32	> 100	129.49±22.76	101.78±7.08	105.25±12.82	108.76±5.63	103.77±9.35	86.44±8.60	47.7 ± 9.63	52.4 ± 3.44	44.1 ± 1.38	47.3 ± 0.92	7.17 ± 1.53	263.4 to 265.8	50	–
Cc1ccccc1N1CCN(C(=O)c2ccc(Nc3ccnc4cc(C(F)(F)F)ccc34)cc2)CC1 [Compound G13, [4-(O-tolyl)piperazin-1-yl]{4-{[7-(trifluoromethyl)quinolin-4-yl]amino}phenyl}methanone]	> 100	89.39±3.87	87.73±16.36	92.20±10.16	65.91±7.51	> 100	99.14±6.42	96.29±4.65	89.92±2.14	88.23±4.29	80.60±2.01	81.89±2.67	27 ± 2.2	33.1 ± 4.47	36.9 ± 4.41	34.3 ± 7.15	> 100	194.7 to 195.6	< 10	–
Cc1ccc(N2CCN(C(=O)c3ccc(Nc4ccnc5cc(C(F)(F)F)ccc45)cc3)CC2)cc1 [Compound G14, [4-(P-tolyl)piperazin-1-yl]{4-{[7-(trifluoromethyl)quinolin-4-yl]amino}phenyl}methanone]	> 100	82.40±6.45	91.16±1.34	72.26±17.99	56.76±2.08	> 100	105.78±7.34	95.00±7.82	89.38±1.59	80.67±2.20	76.77±5.03	77.49±2.55	16.43 ± 0.12	20.7 ± 3.82	23.4 ± 2.31	27.9 ± 2.05	> 100	192 to 193.8	–	inhibition at 25 µM [6]: < 10%
O=C(c1ccc(Nc2ccnc3cc(C(F)(F)F)ccc23)cc1)N1CCN(c2ccc(OC(F)(F)F)cc2)CC1 [Compound G15, {4-[4-(Trifluoromethoxy)phenyl]piperazin-1-yl}{4-{[7-(trifluoromethyl)quinolin-4-yl]amino}phenyl}methanone]	> 100	92.13±3.70	82.80±5.22	93.36±4.01	76.18±1.27	> 100	105.64±1.62	104.46±0.45	93.38±3.30	103.00±3.15	89.01±2.08	81.59±1.91	36.9 ± 0.82	39.8 ± 4.98	35.3 ± 1.81	45.6 ± 5.12	> 100	195.9 to 196.4	–	inhibition at 50 µM ([6]; concentration 50 µM): 61%
